Results: ChEMBL document CHEMBL3351934, “Monocyclic 4-amino-6-(phenylamino)-1,3,5-triazines as inhibitors of human DNA topoisomerase IIα” (Bioorg Med Chem Lett, 2014)
Active and inactive are the calls of the source. No cut-off for these calls is given here.

Assays:
[1] = target: DNA topoisomerase 2-alpha (Homo sapiens, UniProt P11388); assay: Inhibition of human DNA topoisomerase 2alpha using plasmid pNO1 substrate incubated at 37 degC for 30 mins by fluorimetry
[2] = test system: HepG2; assay: Cytotoxic activity against human HepG2 cells assessed as reduction in cell viability at 200 uM after 24 hrs by MTT assay; type: functional; conditions: HepG2, 24 h
[3] = Cytotoxic activity against HUVEC assessed as reduction in cell viability at 200 uM after 24 hrs by MTT assay; type: cell-based; conditions: human, HUVEC cells; read-out: INH
[4] = test system: HepG2; assay: Cytotoxic activity against human HepG2 cells assessed as reduction in cell viability after 24 hrs by MTT assay; conditions: HepG2, 24 h
[5] = test system: HUVEC; assay: Cytotoxic activity against HUVEC assessed as reduction in cell viability after 24 hrs by MTT assay; type: cell-based, Homo sapiens
[6] = test system: MCF7; assay: Cytotoxic activity against human MCF7 cells assessed as reduction in cell viability after 24 hrs by MTT assay; conditions: MCF7, 24 h
[7] = test system: MCF7; assay: Cytotoxic activity against human MCF7 cells assessed as reduction in cell viability at 200 uM after 24 hrs by MTT assay; type: functional, cell-based
[8] = test system: HepG2; assay: Cytotoxic activity against human HepG2 cells assessed as reduction in cell viability at 50 to 100 uM after 24 hrs by MTT assay; type: functional, cell-based
[9] = test system: HepG2; assay: Cytotoxic activity against human HepG2 cells assessed as reduction in cell viability at 6.25 to 25 after 24 hrs by MTT assay; type: functional, cell-based
[10] = test system: MCF7; assay: Cytotoxic activity against human MCF7 cells assessed as reduction in cell viability at 6.25 to 25 after 24 hrs by MTT assay; type: functional, cell-based

Sequence of DNA topoisomerase 2-alpha (P11388 whole entry): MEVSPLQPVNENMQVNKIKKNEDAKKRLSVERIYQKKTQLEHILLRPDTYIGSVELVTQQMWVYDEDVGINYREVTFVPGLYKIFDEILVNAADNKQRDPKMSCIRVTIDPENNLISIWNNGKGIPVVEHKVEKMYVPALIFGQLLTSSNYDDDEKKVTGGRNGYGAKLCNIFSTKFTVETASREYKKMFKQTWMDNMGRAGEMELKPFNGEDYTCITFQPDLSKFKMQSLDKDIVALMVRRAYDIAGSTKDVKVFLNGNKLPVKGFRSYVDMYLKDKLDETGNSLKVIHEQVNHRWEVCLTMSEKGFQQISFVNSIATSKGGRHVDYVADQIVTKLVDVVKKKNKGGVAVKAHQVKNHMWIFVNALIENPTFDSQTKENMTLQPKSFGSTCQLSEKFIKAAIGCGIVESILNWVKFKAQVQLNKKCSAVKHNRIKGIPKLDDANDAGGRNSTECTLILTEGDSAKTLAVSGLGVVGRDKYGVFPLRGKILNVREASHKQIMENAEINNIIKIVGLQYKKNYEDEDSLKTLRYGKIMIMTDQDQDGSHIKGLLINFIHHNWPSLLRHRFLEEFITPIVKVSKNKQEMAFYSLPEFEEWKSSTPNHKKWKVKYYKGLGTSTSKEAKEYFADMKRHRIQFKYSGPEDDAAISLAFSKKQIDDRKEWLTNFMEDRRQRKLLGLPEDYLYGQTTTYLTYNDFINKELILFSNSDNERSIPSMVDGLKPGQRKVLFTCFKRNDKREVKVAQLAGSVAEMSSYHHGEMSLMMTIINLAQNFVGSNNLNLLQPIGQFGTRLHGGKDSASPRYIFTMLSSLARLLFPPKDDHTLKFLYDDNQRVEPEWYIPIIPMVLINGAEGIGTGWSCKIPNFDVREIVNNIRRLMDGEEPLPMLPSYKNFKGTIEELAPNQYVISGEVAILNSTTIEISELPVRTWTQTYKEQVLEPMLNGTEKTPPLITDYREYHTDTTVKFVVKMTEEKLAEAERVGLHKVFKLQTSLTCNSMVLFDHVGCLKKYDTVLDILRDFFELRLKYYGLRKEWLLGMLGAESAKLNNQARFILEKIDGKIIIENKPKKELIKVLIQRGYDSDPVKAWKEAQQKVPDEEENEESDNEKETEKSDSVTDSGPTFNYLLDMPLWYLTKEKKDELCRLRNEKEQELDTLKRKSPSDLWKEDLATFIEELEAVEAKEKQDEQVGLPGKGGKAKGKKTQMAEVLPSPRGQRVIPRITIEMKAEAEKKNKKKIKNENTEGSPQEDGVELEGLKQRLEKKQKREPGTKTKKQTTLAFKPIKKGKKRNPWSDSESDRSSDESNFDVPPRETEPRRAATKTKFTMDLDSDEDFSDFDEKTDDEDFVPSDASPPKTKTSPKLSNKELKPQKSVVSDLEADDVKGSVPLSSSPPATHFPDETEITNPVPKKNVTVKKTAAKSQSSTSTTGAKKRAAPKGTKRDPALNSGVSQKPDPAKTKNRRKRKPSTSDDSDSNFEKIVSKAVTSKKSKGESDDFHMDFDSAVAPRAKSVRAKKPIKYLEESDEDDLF

Row | Structure (SMILES) | IC50 [1] | further results
1 | CN(C(=S)SCc1nc(N)nc(Nc2ccc(F)cc2)n1)C1CCCCC1 | > 1000 µM | 
2 | COc1cccc(C(=O)NCc2n[nH]c(=S)n2-c2ccccc2Cl)c1 | > 1000 µM | 
3 | Nc1nc(CSc2nnc(C3CC3)o2)nc(Nc2ccc(F)cc2)n1 | > 1000 µM | 
4 | Cc1cc(CNc2nc(C)ccc2C(N)=O)ccn1 | > 1000 µM | 
5 | COc1ccc(Nc2nc(N)nc(CSC(=S)N3CCOCC3)n2)cc1 | 229 µM | inhibition at 200 µM [2]: 90%; cytotoxicity at 24 h, 200 µM [3]: 90%; EC50 [4]: 20.5 µM; EC50 ([5]; Homo sapiens, HUVEC): 122 µM; inhibition (INH) ([5]; human, huvec): Dose-dependent effect; EC50 [6]: 129 µM; inhibition [7]: Active; inhibition [8]: Active; inhibition [9]: inactive; inhibition [10]: inactive
6 | Nc1nc(CSc2nnnn2C2CCCC2)nc(Nc2ccc(F)cc2)n1 | > 1000 µM | 
7 | Cc1cc(O)nc(N/N=C\c2cccnc2)n1 | > 1000 µM | 
8 | Nc1nc(CSc2nnn[nH]2)nc(Nc2ccc(F)cc2)n1 | 337 µM | 
9 | Nc1nc(CSC2CCCC2)nc(Nc2ccc(F)cc2)n1 | > 1000 µM | 
10 | CN1CCN(C(=S)SCc2nc(N)nc(Nc3ccc(F)cc3)n2)CC1 | > 1000 µM | 
11 | Cn1nnnc1SCc1nc(N)nc(Nc2ccc(F)cc2)n1 | > 1000 µM | 
12 | O=C(NCc1n[nH]c(=S)n1-c1ccc(F)cc1)c1ccccc1F | > 1000 µM | 
13 | Cc1cc(O)nc(N/N=C\c2ccncc2)n1 | > 1000 µM | 
14 | COc1ccc(CNc2ncccc2C(N)=O)cc1OC | > 1000 µM | 
15 | C[C@H](Sc1nc(N)nc(N)n1)C(=O)N1CCOCC1 | > 1000 µM | 
16 | Nc1nc(N)nc(CSc2nnc(-c3cccnc3)o2)n1 | > 1000 µM | 
17 | O=C(NCc1n[nH]c(=S)n1-c1ccccc1)c1ccccc1C(F)(F)F | > 1000 µM | 
18 | C[C@H](Sc1nc(N)cc(O)n1)C(=O)N1CCOCC1 | > 1000 µM | 
19 | Cc1cc(CNc2ncccc2C(N)=O)ccn1 | > 1000 µM | 
20 | Cc1cc(CNc2nc3c(cc2C(N)=O)CCC3)ccn1 | > 1000 µM | 
21 | Nc1nc(SCCc2ccccc2)c2nc[nH]c2n1 | 85 µM | 
22 | Nc1nc(CSC(=S)N2CCOCC2)nc(Nc2ccc(F)cc2)n1 | 139 µM | 
23 | COc1ccc(Nc2nc(N)nc(CSC(=S)N3CCCCC3)n2)cc1 | > 1000 µM | 
24 | COc1cccc(C(=O)NCc2nnc(S)n2-c2ccc(Cl)c(Cl)c2)c1 | > 1000 µM | 
25 | Cc1cc(O)nc(NCCCn2ccnc2)n1 | > 1000 µM | 
26 | CCCn1ccnc1SCc1nc(N)nc(Nc2ccc(F)cc2)n1 | > 1000 µM | 
